Measurements published in patent US9796764B2, “Cyclotide genes in the fabaceae plant family” (The University of Queensland, priority 2011, dated 2017).
Where a SMILES comes first, the peptide text is derived from it.

Experiments:
[1] = tested on: Helicoverpa armigera larvae; test: Insecticidal feeding trial; assay type: in vivo; settings: against the cotton budworm Helicoverpa armigera
Protocol: H. armigera larvae were obtained from the Queensland Department of Employment, Economic Development & Innovation. A feeding trial was conducted for 48 h with larvae maintained at 25° C. throughout the experiment. Larvae were given diets consisting of wheat germ, yeast, and soy flour.

trypsin = target: T1, trypsin (Bos taurus, UniProt P00760); test: Proteolysis by trypsin (MS of leaf extract); assay type: in vitro ADME; settings: native Cter M in leaf extract
T1 construct: purchased Sigma T1426
T1 sequence (P00760 24-246): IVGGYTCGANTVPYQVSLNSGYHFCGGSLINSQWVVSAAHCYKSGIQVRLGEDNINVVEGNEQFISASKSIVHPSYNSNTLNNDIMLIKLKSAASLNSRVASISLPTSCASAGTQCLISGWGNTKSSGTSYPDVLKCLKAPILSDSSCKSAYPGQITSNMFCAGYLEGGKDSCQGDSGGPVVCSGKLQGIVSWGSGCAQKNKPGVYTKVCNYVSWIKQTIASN
Description: (§1) The reduced and alkylated peptide, m/z 3407.6 (E, G, I) underwent proteolytic cleavage by trypsin (F) and chymotrypsin (H, J). As there is only a single tryptic site, the trypsin digestion product is observed at m/z 3424.6, whereas there were three chymotryptic sites resulting in the formation of major products at m/z 1450.7, 1511.7 and 1931.8 corresponding to KNGLPTCGETCL (SEQ ID NO:129), VPDCSCSWPICM (SEQ ID NO:130) and KNGLPTCGETCLGTCY (SEQ ID NO:131) respectively.

[2] = Solubility of the synthetic peptide; assay type: physicochemical
Protocol: Synthesis Cter M was synthesized using solid phase peptide synthesis and folded using conditions earlier established for other cyclotides (Daly, N. L., et al., (1999) Biochemistry 38, 10606-10614) including the use of 50% isopropanol in buffer. […] The NMR spectra of the native and synthetic Cter M peptides were recorded and found to be identical. The three-dimensional structure of Cter M was calculated with 398 distance restraints and 11 angle restraints using a simulated annealing protocol in CNS.

chymotrypsin = test: Proteolysis by chymotrypsin (MS of leaf extract); assay type: in vitro ADME; settings: native Cter M in leaf extract
Description: as §1

[3] = Heat denaturation, NMR spectra before and after heating; assay type: physicochemical; settings: 95° C. for 5 minutes
Description: (B) Superposition of the 20 lowest energy structures of Cter M. Secondary structure of Cter M (C) and PA1b (E; PDB code 1P8B). The strands are shown as arrows and the helical turns as thickened ribbons. The disulfide bonds are shown in ball-and-stick format. The structure figures were generated using MOLMOL (Koradi, R., Billeter, M. & Wüthrich, K. (1996) J. Mol. Graph. 14, 29-32). Superimposition of Cter M and PA1b (D) showing cystine knot motif; disulfide bonds are indicated, and the aC are represented by spheres.
The structure of Cter M is extremely stable evidenced by its resistance to heat denaturation. […] An ensemble and ribbon representation of the three dimensional structure is shown in FIG. 14 along with a comparison with PA1b, the pea albumin whose precursor shares high sequence homology with the Cter gene.

[4] = Binding to immobilized lipid vesicles (sensorgram); settings: PE membranes
[5] = tested on: L3-stage larvae of Haemonchus contortus; test: Larval migration (motility) assay; assay type: cell-based; settings: against Haemonchus contortus
Protocol: The effect of kB1 and Cter M on the motility of L3-stage larvae of Haemonchus contortus was assessed using a previously described method (Colgrave, et al., 2010, Antimicrob. Agents Ch. 54:2160-2166). The larvae were incubated in PBS containing a range of peptide concentrations for 24 h in the dark in a 96-well plate format. The motility of the worms was assessed wherein sinusoidal motion was indicative of health and loss of motility or the degree of motility was indicative of poor health. Nematodes that had been incubated with cyclotides were compared to control (no-peptide) wells.

[6] = Haemolytic activity assay; assay type: cell-based, human; settings: washed human red blood cells; % of maximum lysis (1% Triton X-100); read-out: haemolytic dose necessary to lyse 50% of the RBCs (HD50)
Protocol: (§2) Serially diluted peptide solutions were incubated with washed human red blood cells. Following incubation, the supernatant was transferred before the UV absorbance was measured. The amount of haemolysis was calculated as the percentage of maximum lysis (1% Triton X-100 control) after adjusting for minimum lysis (PBS control). Synthetic melittin was used for comparison. The haemolytic dose necessary to lyse 50% of the RBCs (HD50) was calculated using the regression constant from the linear portion of the haemolytic titration curve (Graphpad Prism software).

human red blood cells = test: Haemolytic activity assay; assay type: cell-based; settings: human red blood cells
Protocol: as §2

CC[C@H](C)[C@@H]1NC(=O)[C@@H]2CCCN2C(=O)[C@H](Cc2c[nH]c3ccccc23)NC(=O)[C@H](CO)NC(=O)[C@@H]2CSSC[C@@H]3NC(=O)[C@H]([C@@H](C)O)NC(=O)[C@H](CCC(=O)O)NC(=O)CNC(=O)[C@@H]4CSSC[C@H](NC(=O)[C@H](CC(=O)O)NC(=O)[C@@H]5CCCN5C(=O)[C@H](C(C)C)NC(=O)[C@H](Cc5ccc(O)cc5)NC(=O)[C@H](CSSC[C@H](NC1=O)C(=O)N[C@@H](CCSC)C(=O)N[C@@H](CCCCN)C(=O)N[C@@H](CC(N)=O)C(=O)NCC(=O)N[C@@H](CC(C)C)C(=O)N1CCC[C@H]1C(=O)N[C@@H]([C@@H](C)O)C(=O)N4)NC(=O)[C@H]([C@@H](C)O)NC(=O)CNC(=O)[C@H](CC(C)C)NC(=O)[C@H]([C@@H](C)O)NC3=O)C(=O)N[C@@H](CO)C(=O)N2 [Cter M] (HELM PEPTIDE1{C.G.E.T.C.T.L.G.T.C.Y.V.P.D.C.S.C.S.W.P.I.C.M.K.N.G.L.P.T}$PEPTIDE1,PEPTIDE1,1:R3-15:R3|PEPTIDE1,PEPTIDE1,5:R3-17:R3|PEPTIDE1,PEPTIDE1,10:R3-22:R3|PEPTIDE1,PEPTIDE1,1:R1-29:R2$$$V2.0)
insecticidal activity [1]: insecticidal activity
hydrolysis by trypsin (trypsin): no observed hydrolysis
solubility on addition of acetonitrile ([2]; addition of acetonitrile): greatly improved the solubility
solubility in water ([2]; water): relatively low solubility in water
hydrolysis by chymotrypsin (chymotrypsin): no observed hydrolysis
resistance to heat denaturation (change in NMR spectra) [3]: no changes were observed in the spectra
membrane binding [4]: binds to PE membranes
anthelmintic activity [5]: anthelmintic activity
HC50 [6]: > 100 µM
haemolytic activity (human red blood cells): mildly haemolytic

CC(C)C[C@@H]1NC(=O)CNC(=O)[C@H](CC(N)=O)NC(=O)[C@H](CCCNC(=N)N)NC(=O)[C@H]([C@@H](C)O)NC(=O)[C@@H]2CSSC[C@@H]3NC(=O)[C@H]([C@@H](C)O)NC(=O)CNC(=O)CNC(=O)[C@H](C(C)C)NC(=O)[C@@H]4CSSC[C@H](NC(=O)[C@H]([C@@H](C)O)NC(=O)[C@H](CSSC[C@H](NC(=O)[C@H](C(C)C)NC(=O)[C@@H]5CCCN5C1=O)C(=O)NCC(=O)N[C@@H](CCC(=O)O)C(=O)N[C@@H]([C@@H](C)O)C(=O)N4)NC(=O)CNC(=O)[C@@H]1CCCN1C(=O)[C@H]([C@@H](C)O)NC(=O)[C@H](CC(N)=O)NC3=O)C(=O)N[C@@H](CO)C(=O)N[C@@H](Cc1c[nH]c3ccccc13)C(=O)N1CCC[C@H]1C(=O)N[C@@H](C(C)C)C(=O)N2 [kB1, kalata B1, reference compound]
HC50 [6]: 7.8 µM
